Values joined by “and” are separate entries in the source; they are usually repeats but may differ in a detail not shown here. Equal entries are not always repeated. Where two headings read alike, the source gives them in different places.
Tests used:
[1] = test system: CYPs 3A, 1A and 2C9; set-up: method as in Investigator Brochure; settings: protocol background; ref Investigator Brochure; cited from earlier work
[2] = format: in vivo; settings: trough plasma, individual patients
Procedure: Peripheral blood w ill be sent to Lab21 for anti-retroviral drug levels on Cycle 1 D ay 1 Pre-
treatment, Cycle 1 Day 15 and Cycle 4 D ay 22/Cycle 5 Day 1. […]
• 5mls of venous blood should be collected into a K2- ED TA BD vacutainer
• Samples should be inverted several times to ensure adequate mix ing. […]
• Samples should be stored at - 200C. […]
Ant i-retroviral drug lev els
• Samples to be collected Cycle 1 Day 1 Pre- treatment and Cycle 1 Day 15 and Cycle 4 Day […]
• 2x 1000 µl of plasma should be aliquoted to 1.5 ml plastic screw top tubes.
• Samples should be stored at - 200C (or below) for 24 hours befor e sending. […]
Therapeutic drug monitoring of the cART therapies was undertaken by Lab 21 Ltd (Cambridge, UK). Blood plasma was prepared from 5 ml of venous blood collected in K2-EDTA BD vacutainer tubes from kits provided by Covance. Samples were centrifuged at 2000 g for 20 minutes at room temperature, frozen at sites, packed in dry ice and sent to Lab 21 Ltd (Cambridge, UK) where they were stored at -20°C prior to analysis.

[3] = format: in vivo; settings: trough plasma, Cycle 5 Day 15, individual patient
[4] = test system: non-small cell lung cancer; set-up: method as in SCART protocol 7.3.1; settings: selumetinib 75mg bd + docetaxol 75mg/m2 iv day 1 every 21 days (combination arm) or chemotherapy alone arm; ref SCART protocol 7.3.1; cited from earlier work
[5] = test system: Kaposi's sarcoma; set-up: method as in Tulpule, et al. 2002; settings: 100mg/m2 q 2 weeks, second-line; ref Tulpule, et al. 2002; cited from earlier work
[6] = Cycle 1 Day 1 (pre-selumetinib), selumetinib starting dose 75 mg bd
[7] = Cycle 1 Day 15, selumetinib starting dose 75 mg bd
[8] = Cycle 1 Day 1 (pre-selumetinib), selumetinib starting dose 50 mg bd
[9] = Cycle 1 Day 15, selumetinib starting dose 50 mg bd
[10] = Cycle 5 Day 1, selumetinib starting dose 50 mg bd
[11] = Cycle 5 Day 1, selumetinib starting dose 75 mg bd

Structure (SMILES) | Antiretroviral drug Concentration [2, 6] | Antiretroviral drug Concentration [2, 7] | Antiretroviral drug Concentration [2, 8] | Antiretroviral drug Concentration [2, 9] | Antiretroviral drug Concentration [2, 10] | other results
Cn1cnc2c(F)c(Nc3ccc(Br)cc3Cl)c(C(=O)NOCCO)cc21 [AZD6244] |  |  |  |  |  | induction of CYPs 3A, 1A and 2C9 [1]: weak
Nc1nc(NC2CC2)c2ncn([C@H]3C=C[C@@H](CO)C3)c2n1 [Abacavir] | 1060 ng/mL | 246 ng/mL |  |  |  | 
COC(=O)N[C@H](C(=O)N[C@@H](Cc1ccccc1)[C@@H](O)CN(Cc1ccc(-c2ccccn2)cc1)NC(=O)[C@@H](NC(=O)OC)C(C)(C)C)C(C)(C)C [Atazanavir] | 758 ng/mL | 5797 ng/mL |  |  |  | 
O=C1Nc2ccc(Cl)cc2[C@@](C#CC2CC2)(C(F)(F)F)O1 [Efavirenz] | 3378 ng/mL | 3139 ng/mL | 4545 ng/mL | 4180 ng/mL | 6257 ng/mL | 
Nc1ccn([C@@H]2CS[C@H](CO)O2)c(=O)n1 [Lamivudine] | 817 ng/mL | 512 ng/mL |  |  |  | 
CC(C)c1nc(CN(C)C(=O)N[C@H](C(=O)N[C@@H](Cc2ccccc2)C[C@H](O)[C@H](Cc2ccccc2)NC(=O)OCc2cncs2)C(C)C)cs1 [Ritonavir] | 364 ng/mL and 342 ng/mL | 1585 ng/mL and 564 ng/mL | 516 ng/mL and 94 ng/mL | 462 ng/mL and 575 ng/mL and 246 ng/mL | 328 ng/mL and 566 ng/mL | Antiretroviral drug Concentration [2, 11]: 431 ng/mL
C[C@H](Cn1cnc2c(N)ncnc21)OCP(=O)(O)O [Tenofovir] | 84 ng/mL and 30 ng/mL and 60 ng/mL and 130 ng/mL and 90 ng/mL | 123 ng/mL and 46 ng/mL and 239 ng/mL and 40 ng/mL | 133 ng/mL and 15 ng/mL and 90 ng/mL | 51 ng/mL and 234 ng/mL and 43 ng/mL | 55 ng/mL | Antiretroviral drug Concentration [2, 11]: 135 ng/mL and 104 ng/mL; Antiretroviral drug Concentration ([3]; selumetinib starting dose 50 mg bd): 230 ng/mL; Antiretroviral drug Concentration ([3]; selumetinib starting dose 75 mg bd): 143 ng/mL
CC(=O)O[C@@]12CO[C@@H]1C[C@H](O)[C@@]1(C)C(=O)[C@H](O)C3=C(C)[C@@H](OC(=O)[C@H](O)[C@@H](NC(=O)OC(C)(C)C)c4ccccc4)C[C@@](O)([C@@H](OC(=O)c4ccccc4)[C@H]21)C3(C)C [docetaxol] |  |  |  |  |  | febrile neutropenia, patients [4]: 0/42
CC(=O)O[C@H]1C(=O)[C@@]2(C)[C@H]([C@H](OC(=O)c3ccccc3)[C@]3(O)C[C@H](OC(=O)[C@H](O)[C@@H](NC(=O)c4ccccc4)c4ccccc4)C(C)=C1C3(C)C)[C@]1(OC(C)=O)CO[C@@H]1C[C@@H]2O [paclitaxel] |  |  |  |  |  | median PFS [5]: 39 weeks; response rate [5]: 56%

Source: article PMC11921695 (BMC Cancer, 2025)
